# Source: ChEMBL document CHEMBL1130947, “Tight-binding streptavidin ligands from a cyclic peptide library” (Bioorg Med Chem Lett, 1998)
# Positions of bridges follow the written chain, without caps; N, C: chain ends. Residues, ends and D or L forms follow the SMILES beside them.
# Test: The compound was tested for inhibition of streptavidin binding to the TentaGel-bound Ac-HPQFG peptide
row,Molecule,IC50
1,C[C@@H]1NC(=O)CC[C@@H](C(=O)N[C@@H](CCCCN)C(N)=O)NC(=O)[C@H](C)NC(=O)[C@@H]2CCCN2C(=O)[C@H](Cc2ccccc2)NC(=O)[C@H](CCC(N)=O)NC(=O)[C@@H]2CCCN2C(=O)[C@H](Cc2c[nH]cn2)NC1=O (AHPQFPAEK-NH2; lactam N-8),0.128 µM
2,C[C@@H]1NC(=O)CC[C@@H](C(=O)N[C@@H](CCCCN)C(N)=O)NC(=O)[C@H](C)NC(=O)[C@H](Cc2ccccc2)NC(=O)[C@H](Cc2c[nH]cn2)NC(=O)CNC(=O)[C@H](Cc2ccc(O)cc2)NC(=O)[C@H](CCC(N)=O)NC1=O (AQYGHFAEK-NH2; lactam N-8),> 5000 µM
3,CC[C@H](C)[C@H](NC(=O)[C@H]1CSSC[C@H](NC(=O)[C@H](CCC(=O)O)NC(=O)[C@H](C)N)C(=O)N[C@@H](Cc2c[nH]cn2)C(=O)N2CCC[C@H]2C(=O)N[C@@H](CCC(N)=O)C(=O)NCC(=O)N2CCC[C@H]2C(=O)N2CCC[C@H]2C(=O)N1)C(=O)N[C@@H](CCC(=O)O)C(=O)NCC(=O)N[C@@H](CCCN=C(N)N)C(=O)N[C@@H](CCCCN)C(N)=O,0.73 µM

# Now from value to molecule:
row,IC50,Molecule
1,204 µM,Ac-AHPQFGAEK-NH2
2,136 µM,Ac-AHPQFPAEK-NH2
3,19 µM,C[C@@H]1NC(=O)CNC(=O)[C@H](Cc2ccccc2)NC(=O)[C@H](CCC(N)=O)NC(=O)[C@@H]2CCCN2C(=O)[C@H](Cc2c[nH]cn2)NC(=O)[C@H](C)NC(=O)CC[C@@H](C(=O)N[C@@H](CCCCN)C(N)=O)NC1=O (AHPQFGAEK-NH2; lactam N-8)
